Experimental data published in patent US20120022078A1, “ARYL INDOLE DERIVATIVES” (MSD K.K., priority 2010, published 2012).

What follows are compounds tested against T1, human QRFP receptor (GPR103) (Homo sapiens, UniProt Q96P65) (assay: QRFP43 binding inhibition test ([125I]QRFP43, membranes of GPR103-expressing CHO-K1 cells)). Details: membrane specimen from QRFP receptor (GPR103) expressing cells, 25° C., 1 hour, 20,000 cpm [125I]QRFP43; read-out: IC50 (50% inhibition concentration for the specific [125I] QRFP43 binding).
T1 construct: expressed in transfected cells; host or cells: NFAT β-Lactamase CHO-K1 host cells (Aurora); membrane specimen
T1 sequence (Q96P65 1-431): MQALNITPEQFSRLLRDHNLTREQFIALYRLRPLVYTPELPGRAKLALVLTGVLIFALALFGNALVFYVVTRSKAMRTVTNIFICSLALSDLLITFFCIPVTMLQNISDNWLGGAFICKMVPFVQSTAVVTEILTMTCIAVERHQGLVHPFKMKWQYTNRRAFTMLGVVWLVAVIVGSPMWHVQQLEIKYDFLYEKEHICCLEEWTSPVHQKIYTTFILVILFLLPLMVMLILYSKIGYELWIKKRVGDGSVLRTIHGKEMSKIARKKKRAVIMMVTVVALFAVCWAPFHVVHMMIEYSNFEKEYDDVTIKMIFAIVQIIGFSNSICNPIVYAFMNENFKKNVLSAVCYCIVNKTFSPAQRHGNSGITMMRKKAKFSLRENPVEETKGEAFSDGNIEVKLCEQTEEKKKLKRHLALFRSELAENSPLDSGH
Description: The cDNA sequence [Accession No. NM_198179] that codes for human QRFP receptor (GPR103) was cloned into an expression vector pEF1V5-HisB (Invitrogen). The expression vector so prepared was transfected into NFAT β-Lactamase CHO-K1 host cells (Aurora) to obtain QRFP receptor (GPR103) expressing cells, using the cationic lipid method [see Proceedings of the National Academy of Sciences of the United States of America, Vol. 84, p. 7413 (1987)].
The membrane specimen prepared from the QRFP receptor (GPR103) expressing cells was incubated at 25° C. for 1 hour with a test compound and 20,000 cpm [^125I ] QRFP43 (PerkinElmer, Inc.) in an assay buffer (50 mM Tris-HCl, 1 mM EDTA, and 0.1% BSA, pH 7.4), followed by filtration using a glass filter GF/C. After washing with a 50 mM Tris-HCl (containing 2 mM EDTA, 10 mM MgCl2, and 0.04% Tween-20) buffer at pH 7.4, the radioactivity on the glass filter was determined using a gamma counter. Non-specific binding was measured in the presence of 1 μM peptide QRFP43, and 50% inhibition concentration (IC50 value) of the test compound for the specific [^125I] QRFP43 binding was determined [see Endocrinology, Vol. 131, p. 2090 (1992)].

IC50 [nM]	Compound
111	CN1CCN(Cc2cncc(-c3cc4ccccc4n3C)c2)CC1 [Example 5, 1-Methyl-2-{5-[(4-methylpiperazin-1-yl)methyl]pyridin-3-yl}-1H-indole]
33.1	CN1CCN(Cc2cc(-c3cc4ccccc4n3C)ncc2F)CC1 [Example 2]
52.5	CN1CCN(Cc2cnc(F)c(-c3cc4ccccc4n3C)c2)CC1 [Example 4]
49.8	CN1CCN(Cc2cnc(-c3cc4ccccc4n3C)s2)CC1 [Example 1, 1-Methyl-2-{5-[(4-methylpiperazin-1-yl)methyl]-1,3-thiazol-2-yl}-1H-indole]
48.3	CN1CCN(Cc2ccc(F)c(-c3cc4ccccc4n3C)c2)CC1 [Example 3, 2-{2-Fluoro-5-[(4-methylpiperazin-1-yl)methyl]phenyl}-1-methyl-1H-indole]
